# According to patent EP2296651B1, “5-HYDROXYMETHYL-OXAZOLIDIN-2-ONE DERIVATIVES FOR TREATING BACTERIAL INTESTINAL DISEASES” (Actelion Pharmaceuticals Ltd., priority 2008, dated 2009):
# Key:
# [1] = test system: C. difficile ATCC 9689; assay: Broth microdilution MIC, anaerobic; type: cell-based, Clostridium difficile; conditions: Clostridioides difficile, ATCC9689, 48h at 37°C, read-out: MIC regarding C. difficile ATCC 9689
# [2] = test system: C. difficile NC 13366; assay: Broth microdilution MIC, anaerobic; type: cell-based, Clostridium difficile; conditions: Clostridioides difficile, NC13366, 48h at 37°C, quinolone-resistant hypervirulent strain, read-out: MIC regarding C. difficile NC 13366
# [3] = test system: C. perfringens DSM 756; assay: microbe, parasite or virus in culture; type: cell-based; conditions: Clostridium perfringens, DSM756, 48 h, read-out: MIC regarding C. perfringens DSM 756
# [4] = test system: 209 diverse clinical isolates of C. difficile; assay: CLSI agar dilution MIC, clinical isolates; type: cell-based, Clostridium difficile; conditions: Clostridioides difficile, 48 h; 209 clinical isolates of C. difficile; read-out: MIC90
# [5] = test system: Clostridium difficile A- 1179 NC 13366; assay: Agar dilution MIC, anaerobic strains; type: cell-based; conditions: Clostridioides difficile, A1179NC13366, 48 h
# [6] = test system: Fusobacterium necrophorum A-1260 DSM 20698; assay: Agar dilution MIC, anaerobic strains; type: cell-based; conditions: DSM20698, 48 h
# [7] = test system: Bacteroides ovatus A-991 ATCC 8483; assay: Agar dilution MIC, anaerobic strains; type: cell-based; conditions: ATCC8483, 48 h
# [8] = test system: Bacteroides vulgatus A-989 ATCC 8482; assay: Agar dilution MIC, anaerobic strains; type: cell-based; conditions: Phocaeicola vulgatus, ATCC8482, 48 h
# [9] = test system: Bacteroides fragilis A-502 T 7403; assay: Agar dilution MIC, anaerobic strains; type: cell-based; conditions: A502T7403, 48 h
# [10] = test system: Bacteroides fragilis A-348 T 8673; assay: Agar dilution MIC, anaerobic strains; type: cell-based; conditions: A348T8673, 48 h
# [11] = test system: Bacteroides fragilis A-217 B 6306; assay: Agar dilution MIC, anaerobic strains; type: cell-based; conditions: A217B6306, 48 h
# [12] = test system: Bacteroides fragilis A-501 B 8039; assay: Agar dilution MIC, anaerobic strains; type: cell-based; conditions: A501B8039, 48 h
# [13] = test system: Bacteroides fragilis A-294 T 9174; assay: Agar dilution MIC, anaerobic strains; type: cell-based; conditions: A294T9174, 48 h
# [14] = test system: Eubacterium limosum A-1259 DSM 20698; assay: Agar dilution MIC, anaerobic strains; type: cell-based
# [15] = test system: Finegoldia magna A-1254 DSM 20470; assay: Agar dilution MIC, anaerobic strains; type: cell-based
# [16] = test system: Bifidobacterium adolescentis A-1257 DSM 20083; assay: Agar dilution MIC, anaerobic strains; type: cell-based; conditions: DSM20083, 48 h
# [17] = test system: Bifidobacterium bifidum A-1258 DSM 20456; assay: Agar dilution MIC, anaerobic strains; type: cell-based; conditions: DSM20456, 48 h
# [18] = test system: Lactobacillus acidophilus A-1255 DSM 20079; assay: Agar dilution MIC, anaerobic strains; type: cell-based
# [19] = test system: Lactococcus lactis A-1256 DSM 20069; assay: Agar dilution MIC, anaerobic strains; type: cell-based
# [20] = test system: C. difficile strain NC 13366; type: cell-based; conditions: 1 and 8 µg/ml; supernatants at day 5; high density stationary phase cultures
# [21] = test system: S. aureus ATCC 29213; assay: Broth microdilution MIC, aerobic Gram-positive bacteria; conditions: Staphylococcus aureus, ATCC29213, 48 h
# [22] = test system: S. aureus A-798 (MRSA); assay: as above; conditions: Staphylococcus aureus, 48 h
# [23] = test system: S. aureus ATCC 43300 (MRSA); assay: as above; conditions: Staphylococcus aureus, 48 h
# [24] = test system: S. aureus S1 (LZD-R); assay: as above; conditions: Staphylococcus aureus, 48 h
# [25] = test system: E. faecalis H 4060; assay: as above; conditions: Enterococcus faecalis, H4060, 48 h
# [26] = test system: E. faecalis H 6279; assay: as above; conditions: Enterococcus faecalis, H6279, 48 h
# [27] = test system: E. faecalis H 7460; assay: as above; conditions: Enterococcus faecalis, H7460, 48 h
# [28] = test system: E. faecium ATCC 19434; assay: as above; conditions: Enterococcus faecium, ATCC19434, 48 h
# [29] = test system: E. faecium H 7969; assay: as above; conditions: Enterococcus faecium, H7969, 48 h
# [30] = test system: E. faecium H 7966; assay: as above; conditions: Enterococcus faecium, H7966, 48 h
# [31] = test system: E. faecium H 7965; assay: as above; conditions: Enterococcus faecium, H7965, 48 h
# [32] = test system: E. faecium A 962; assay: as above; conditions: Enterococcus faecium, A962, 48 h
# [33] = test system: E. faecium A 949; assay: as above; conditions: Enterococcus faecium, A949, 48 h
smiles,measurement,setting,value
"O=C(O)c1cn(C2CC2)c2cc(N3CCC(O)(COc4ccc(N5C[C@H](CO)OC5=O)cc4F)CC3)c(F)cc2c1=O [Example 1, 1-cyclopropyl-6-fluoro-7-{4-[2-fluoro-4-((R)-5-hydroxymethyl-2-oxo-oxazolidin-3-yl)-phenoxymethyl]-4-hydroxy-piperidin-1-yl}-4-oxo-1,4-dihydro-quinoline-3-carboxylic acid]",MIC,[1],0.125 µg/mL
same,MIC,[2],0.06 µg/mL
same,MIC,[3],≤ 0.03 µg/mL
same,MIC90,[4],0.25 µg/mL
same,MIC,[5],≤ 0.06 µg/mL
same,MIC,[6],1 µg/mL
same,MIC,[7],16 µg/mL
same,MIC,[8],2 µg/mL
same,MIC,[9],4 µg/mL
same,MIC,[10],2 µg/mL
same,MIC,[11],4 µg/mL
same,MIC,[12],4 µg/mL
same,MIC,[13],4 µg/mL
same,MIC,"[14]; DSM20698, 48 h, Eubacterium limosum A-1259, DSM 20698",1 µg/mL
same,less activity against Eubacterium limosum A-1259 compared to the compound of Example 5 of WO 2005/058888,[14]; versus R1,4 times
same,MIC,"[15]; DSM20470, 48 h, Finegoldia magna A-1254, DSM 20470",0.25 µg/mL
same,less activity against Finegoldia magna A-1254 compared to the compound of Example 5 of WO 2005/058888,[15]; versus R1,4 times
same,MIC,[16],0.5 µg/mL
same,MIC,[17],0.5 µg/mL
same,MIC,"[18]; DSM20079, 48 h, Lactobacillus acidophilus A-1255, DSM 20079",0.5 µg/mL
same,less activity against Lactobacillus acidophilus A-1255 compared to the compound of Example 5 of WO 2005/058888,[18]; versus R1,8 times
same,MIC,"[19]; DSM20069, 48 h, Lactococcus lactis A-1256, DSM 20069",0.5 µg/mL
same,less activity against Lactococcus lactis A-1256 compared to the compound of Example 5 of WO 2005/058888,[19]; versus R1,8 times
same,de novo toxin A production,[20],inhibited de novo toxin A production
same,MIC,[21],0.25 µg/mL
same,MIC,[22],0.25 µg/mL
same,MIC,[23],0.25 µg/mL
same,MIC,[24],1 µg/mL
same,MIC,[25],0.25 µg/mL
same,MIC,[26],0.25 µg/mL
same,MIC,[27],1 µg/mL
same,MIC,[28],0.25 µg/mL
same,MIC,[29],1 µg/mL
same,MIC,[30],0.5 µg/mL
same,MIC,[31],0.5 µg/mL
same,MIC,[32],0.5 µg/mL
same,MIC,[33],1 µg/mL
